System: TFG-MET allograft tumors
Assay: RNA-sequencing, differential expression and GSEA of TFG-MET allograft tumors
Assay type: in vivo, mouse
Details: RNA-sequencing of treated allograft tumors
Method: Error bars display standard error of mean, statistical significance was determined using t-test analysis. (****;p<0.0001, ***;p<0.001, **;p<0.01, *;p<0.05). […] Each dot represents an individual replicate. Error bars display standard error of the mean.
Each dot represents one gene.

With `C[C@@H](Oc1cc(-c2cnn(C3CCNCC3)c2)cnc1N)c1c(Cl)ccc(F)c1Cl` [Crizotinib] the “expression of Mapk signature genes in tumors” value was “more heterogenous expression”.

Reference: paper PMC11157767 (Molecular Cancer, 2024)
